The record followed here is publication PMC6372602, “On-target and off-target effects of novel orthosteric and allosteric activators of GPR84” (Scientific Reports, 2019).

The target in one assay is T1, human GPR35a (Homo sapiens, UniProt Q9HC97).
T1 construct: gene GPR35; C-terminal eYFP tag, HEK293 cells co-transfected with luciferase-tagged β-arrestin-2
Kind of assay: β-arrestin-2 recruitment BRET, HEK293 cells. As to conditions: agonist mode. It counts as cell-based.

The target in assay [1] is T2, mouse GPR84-Gαi2 (Mus musculus, UniProt Q8CIM5).
T2 construct: N-terminal FLAG-tagged mouse GPR84 fused to Gαi2 (transducer / reporter; silent C636T in Gαi2); doxycycline-inducible Flp-In T-REx 293 cells; membranes
In words: […]GTPγS binding, membranes. As to conditions: […] °C, pH […] GDP. Type of assay: biochemical.

The target of a further assay is T3, mouse GPR35 (Mus musculus, UniProt Q9ES90).
T3 construct: C-terminal eYFP tag, HEK293 cells co-transfected with luciferase-tagged β-arrestin-2
Kind of assay: β-arrestin-2 recruitment BRET, HEK293 cells. As to conditions: agonist mode. It counts as cell-based. For orientation: Activated receptors often draw arrestin, which recruitment assays turn into a signal.

Assay [2] has as its target T4, mouse GPR84 (RAW264.7 cells) (Mus musculus, UniProt Q8CIM5). In words: […]GTPγS binding, membranes. It counts as biochemical. As to conditions: agonist, LPS-treated cells, […] °C, pH […] GDP. On the technique in general: GTPγS is a poorly hydrolysed GTP analogue; its binding reports G protein activation.
In assay [3] the target is T5, human GPR84-Gαi2 (Homo sapiens, UniProt Q9NQS5).
T5 construct: doxycycline-inducible Flp-In T-REx 293 cells; membranes
Kind of assay: […]GTPγS binding, membranes. It counts as biochemical. As to conditions: partial agonist, allosteric; […] °C, pH […] GDP.

The target of assay [4] is T2, mouse GPR84-Gαi2. Kind of assay: inhibition of agonist-stimulated […]GTPγS binding, membranes. The note with it: antagonist; versus EC80 2-HTP. It counts as biochemical.
Assay [5] deals with T6, GPR84 (THP-1 cells) (Homo sapiens, UniProt Q9NQS5).
T6 construct: endogenous receptor in membranes of LPS-treated THP-1 monocytes
Described as above. It counts as biochemical. The note with it: antagonist, non-competitive; LPS-treated cells; versus EC80 2-HTP.

Assay [6] concerns the target T4, mouse GPR84 (RAW264.7 cells). The assay is described as above. Type of assay: biochemical. As to conditions: antagonist; LPS-treated cells; versus EC80 2-HTP.
Assay [7] deals with T5, human GPR84-Gαi2. The assay is described as above. It counts as biochemical. As to conditions: antagonist, non-competitive; versus EC80 2-HTP.
The target of assay [8] is T6, GPR84 (THP-1 cells). In words: saturation radioligand binding, membranes. As to conditions: labelled compound; antagonist; LPS-treated cells; […] °C, pH […].

T4 sequence (Q8CIM5 whole entry): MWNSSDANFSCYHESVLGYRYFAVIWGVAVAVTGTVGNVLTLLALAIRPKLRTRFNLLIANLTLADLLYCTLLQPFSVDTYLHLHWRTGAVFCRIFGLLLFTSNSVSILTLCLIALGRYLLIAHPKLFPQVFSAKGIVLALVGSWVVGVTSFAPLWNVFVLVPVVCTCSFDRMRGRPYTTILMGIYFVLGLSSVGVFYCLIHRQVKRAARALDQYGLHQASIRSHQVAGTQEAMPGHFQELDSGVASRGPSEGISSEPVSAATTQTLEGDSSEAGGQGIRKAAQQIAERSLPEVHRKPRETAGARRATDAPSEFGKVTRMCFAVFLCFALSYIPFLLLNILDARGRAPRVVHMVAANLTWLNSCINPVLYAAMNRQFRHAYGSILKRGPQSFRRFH
T3 sequence (Q9ES90 whole entry): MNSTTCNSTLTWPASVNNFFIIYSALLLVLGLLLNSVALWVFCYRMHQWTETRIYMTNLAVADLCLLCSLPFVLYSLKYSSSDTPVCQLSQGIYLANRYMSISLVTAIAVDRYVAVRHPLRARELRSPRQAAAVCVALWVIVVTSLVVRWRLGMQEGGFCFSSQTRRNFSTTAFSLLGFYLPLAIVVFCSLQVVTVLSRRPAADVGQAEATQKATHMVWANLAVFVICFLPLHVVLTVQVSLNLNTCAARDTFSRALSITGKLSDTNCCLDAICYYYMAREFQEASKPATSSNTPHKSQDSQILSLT
T5 sequence (Q9NQS5 whole entry): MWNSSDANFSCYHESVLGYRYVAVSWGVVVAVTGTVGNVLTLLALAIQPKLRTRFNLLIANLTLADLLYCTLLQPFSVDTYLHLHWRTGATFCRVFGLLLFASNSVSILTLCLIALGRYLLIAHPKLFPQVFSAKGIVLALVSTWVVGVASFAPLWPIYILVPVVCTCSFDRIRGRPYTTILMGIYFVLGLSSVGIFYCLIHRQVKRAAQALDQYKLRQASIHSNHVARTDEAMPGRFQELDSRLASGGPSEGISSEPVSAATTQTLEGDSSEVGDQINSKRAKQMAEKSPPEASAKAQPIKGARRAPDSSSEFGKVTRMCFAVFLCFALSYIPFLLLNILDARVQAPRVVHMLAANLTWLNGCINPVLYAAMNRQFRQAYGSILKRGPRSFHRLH
T6 sequence (Q9NQS5 whole entry): as above
T1 sequence (Q9HC97 whole entry): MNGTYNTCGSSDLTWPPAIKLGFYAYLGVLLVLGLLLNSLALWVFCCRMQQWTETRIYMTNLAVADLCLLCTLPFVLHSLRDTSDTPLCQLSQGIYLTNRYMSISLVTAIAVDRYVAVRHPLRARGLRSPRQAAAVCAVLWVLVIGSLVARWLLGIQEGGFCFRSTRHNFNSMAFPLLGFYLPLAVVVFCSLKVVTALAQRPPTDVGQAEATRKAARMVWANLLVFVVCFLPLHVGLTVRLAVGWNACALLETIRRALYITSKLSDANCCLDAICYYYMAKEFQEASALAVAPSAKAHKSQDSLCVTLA

A word on the pEC50: it is the EC50 on a negative log10 scale, so that one unit is a factor of ten. `CCCCCCSc1nc(O)cc(O)n1` [2-HTP, 2-(hexylthiol)pyrimidine-4,6 diol]: the “β-arrestin-2 recruitment BRET, HEK293 cells” value was 2-HTP was also unable to activate human GPR35 on human GPR35a and “neither PSB-16671 nor 2-HTP was able to activate mouse GPR35” at mouse GPR35. The pEC50 at mouse GPR84-Gαi2 [1] (agonist) was determined as 7.52 ± 0.11; in [2], 7.58 ± 0.08.

Consider `c1ccc2c(Cc3c[nH]c4ccccc34)c[nH]c2c1` [DIM], for which the EC50 result at human GPR84-Gαi2 [3] is “Equivalent studies using DIM confirmed the higher potency of PSB-16671”. On mouse GPR84-Gαi2 [1] (partial agonist, allosteric), this molecule yielded a pEC50 of 5.37 ± 0.08.

`Fc1cc(F)c2[nH]cc(Cc3c[nH]c4c(F)cc(F)cc34)c2c1` [PSB-16671, di(5,7-difluoro-1H-indole-3-yl)methane]: the pEC50 is listed as 6.53 ± 0.07 at mouse GPR84-Gαi2 [1] (agonist, allosteric) and 6.75 ± 0.10 in assay [2] (allosteric). Moreover, at mouse GPR35, the “β-arrestin-2 recruitment BRET, HEK293 cells” value is on record as “neither PSB-16671 nor 2-HTP was able to activate mouse GPR35”.

One may read the pIC50 as −log10 of the IC50, conventionally taken in molar units. High values mean a small IC50, low ones a large IC50. As to `O=c1nc(OCC2COCCO2)cc2n1CCc1cc(C#CCNc3ccccc3)ccc1-2` (centres unmarked) [compound 107, 2-([1,4]dioxan-2-ylmethoxy)-9-(3-phenylamino-prop-1-ynyl)-6,7-dihydro-pyrimido[6,1-a]isoquinolin-4-one], the pIC50 on mouse GPR84-Gαi2 [4] came to 6.90 ± 0.05; at GPR84 (THP-1 cells) [5] it was 7.86 ± 0.02; in [6], 6.50 ± 0.06; at human GPR84-Gαi2 [7], 8.14 ± 0.06.

A word on the Kd: it is the equilibrium constant for the complex coming apart. The low end stands for tighter binding, the high end for weaker binding. Consider [^3H]9543, for which the affinity at GPR84 (THP-1 cells) [8], expressed as Kd, was 0.18 ± 0.02 nM.
